{"source": "patent US10034862B2", "about": "“Solid pharmaceutical composition comprising amlodipine and losartan” (HANMI PHARM. CO., LTD., priority 2014, dated 2018)", "key": {"[1]": {"settings": "cited from earlier work"}, "[2]": {"assay": "Dissolution of losartan at different pH (gelation)", "format": "physicochemical", "description": "However, when the combined formulation of amlodipine and losartan was prepared, undesirable gelation of losartan was observed. […] As such, in the combined formulation of amlodipine and losartan, amlodipine may also be trapped in the losartan gel due to the gelation of losartan, resulting in a decrease in dissolution rate."}}, "data": [{"compound": "CCCCc1nc(Cl)c(CO)n1Cc1ccc(-c2ccccc2-c2nnn[nH]2)cc1", "note": "[losartan, 2-butyl-4-chloro-1-[[2′-(1H-tetrazol-5-yl)[1,1′-biphenyl]-4-yl]methyl]-1H-imidazol-5-methanol]", "values": [{"measurement": "reduction of Cmax of losartan after food ingestion", "setting": "[1]", "result": "about 10%"}, {"measurement": "dissolution of losartan (in words)", "setting": "[2]; low pH (e.g., pH 1.2 or 2.0), gelation", "result": "very slowly dissolved"}, {"measurement": "dissolution of losartan (in words)", "setting": "[2]; purified water or relatively high pH (e.g., pH 6.8)", "result": "easily dissolved"}]}]}
